From paper PMC7226205 (Biomolecules, 2020)

Experiments:
RUVBL2 = target: T1, RUVBL2 (Homo sapiens, UniProt Q9Y230); test: ATP/NADH coupled ATPase assay; assay type: biochemical
T1 construct: recombinant from E. coli BL21(DE3) pRIL

ScRvb2 = target: T2, ScRvb2 (Saccharomyces cerevisiae, UniProt Q12464); test: ATP/NADH coupled ATPase assay; details: 10 µM protomer, pH 7.5, 37 °C
T2 construct: gene RVB2
T2 sequence (Q12464 whole entry): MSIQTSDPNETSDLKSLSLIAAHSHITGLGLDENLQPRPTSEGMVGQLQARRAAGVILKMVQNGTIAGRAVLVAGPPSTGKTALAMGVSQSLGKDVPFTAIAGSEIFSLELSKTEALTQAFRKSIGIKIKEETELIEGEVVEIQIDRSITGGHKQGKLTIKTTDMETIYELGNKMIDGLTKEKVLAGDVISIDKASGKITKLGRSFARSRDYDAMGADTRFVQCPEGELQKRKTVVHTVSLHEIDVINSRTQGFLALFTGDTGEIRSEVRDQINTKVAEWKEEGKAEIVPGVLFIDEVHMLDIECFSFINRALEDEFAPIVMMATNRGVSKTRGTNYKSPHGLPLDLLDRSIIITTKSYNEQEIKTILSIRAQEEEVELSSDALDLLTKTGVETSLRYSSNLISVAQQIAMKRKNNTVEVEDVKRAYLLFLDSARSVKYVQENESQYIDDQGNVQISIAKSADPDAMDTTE

T1 sequence (Q9Y230 whole entry): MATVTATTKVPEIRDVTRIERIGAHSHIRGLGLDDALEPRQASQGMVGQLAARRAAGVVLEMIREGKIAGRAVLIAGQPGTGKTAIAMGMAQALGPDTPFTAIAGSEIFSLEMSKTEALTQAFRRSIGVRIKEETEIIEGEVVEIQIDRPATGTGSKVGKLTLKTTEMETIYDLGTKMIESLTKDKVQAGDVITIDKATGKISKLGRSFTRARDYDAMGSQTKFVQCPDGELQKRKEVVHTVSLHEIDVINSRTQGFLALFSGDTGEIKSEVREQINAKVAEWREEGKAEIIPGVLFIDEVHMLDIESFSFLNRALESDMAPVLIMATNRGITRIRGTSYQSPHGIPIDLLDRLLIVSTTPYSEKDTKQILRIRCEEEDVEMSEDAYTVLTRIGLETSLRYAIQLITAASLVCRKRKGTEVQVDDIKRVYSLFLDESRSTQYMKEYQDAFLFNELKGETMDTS

inhibition at 15 µM (RUVBL2) | SMILES | % inhibition at 30 μM (ScRvb2)
~40% | CNC(=O)c1cc(Oc2ccc(NC(=O)Nc3ccc(Cl)c(C(F)(F)F)c3)c(F)c2)ccn1 [regorafenib] | –
– | CNC(=O)c1cc(Oc2ccc(NC(=O)Nc3ccc(Cl)c(C(F)(F)F)c3)cc2)ccn1 [sorafenib] | sorafenib can inhibit RUVBL2 from Saccharomyces cerevisiae (named ScRvb2) although less efficiently
